Measured values published in patent US12616685B2, “Concomitant administration of glucocorticoid receptor modulator relacorilant and CYP2C9 substrates” (Corcept Therapeutics Incorporated, priority 2020, dated 2026).

Experiments:
[1] = Clinical drug-drug interaction study in healthy volunteers (tolbutamide alone vs with relacorilant); settings: for effect of relacorilant co-administration on AUC0-tz and AUCinf / reduction of Cmax on co-administration of relacorilant: 500 mg tolbutamide with 350 mg relacorilant vs tolbutamide alone; for AUC0-tz, Ratio of Geometric LSMs (%) / AUCinf, Ratio of Geometric LSMs (%) / Cmax, Ratio of Geometric LSMs (%): 100*(Test/Reference), Treatment E (with relacorilant) vs Treatment B (tolbutamide alone)
Experimental: An open-label, crossover study was conducted in healthy subjects to determine the effect of relacorilant on the plasma exposure of tolbutamide, a known substrate of CYP2C9. A single 500 mg dose of tolbutamide was administered alone and pharmacokinetic (PK) samples were collected before dosing (0 hour) and at 0.5, 1, 1.5, 2, 2.5, 3, 4, 6, 8, 12, 18, 24, 36, and 48 hours post-dose. Relacorilant (350 mg) was then administered once a day for 10 consecutive days. On the following day, a single 500 mg dose of tolbutamide was administered in combination with relacorilant 350 mg and pharmacokinetic (PK) samples were again collected at pre-dose through 48 hours post-dose at the same timepoints as described above. The plasma concentrations of tolbutamide and its metabolite, 4-hydroxy tolbutamide were evaluated by validated bioanalytical assays on each dosing occasion of tolbutamide.
• ANOVA, analysis of variance; AUCinf, AUC from time 0 extrapolated to infinity; AUC0-tz, AUC from time 0 until the time of the last measurable concentration; Cmax, maximum plasma concentration; CV %, coefficient of variation; LSM, least squares mean. • Treatment B: Single oral dose of 500 mg tolbutamide (Reference). • Treatment E: Single oral dose of 500 mg tolbutamide and 350 mg relacorilant administered on Day 15 followed by oral doses of 350 mg relacorilant administered QD on Days 16 and 17 (Test). • Parameters were ln-transformed prior to analysis. • Geometric Least Square means (LSMs) were calculated by exponentiating the LSMs from the ANOVA. • Ratio of Geometric LSMs=100*(Test/Reference); where Test is Treatment E and Reference is Treatment B.

CYP2C9 = CYP2C9 (Homo sapiens, UniProt P11712); assay: biochemical
Sequence of CYP2C9 (P11712 whole entry): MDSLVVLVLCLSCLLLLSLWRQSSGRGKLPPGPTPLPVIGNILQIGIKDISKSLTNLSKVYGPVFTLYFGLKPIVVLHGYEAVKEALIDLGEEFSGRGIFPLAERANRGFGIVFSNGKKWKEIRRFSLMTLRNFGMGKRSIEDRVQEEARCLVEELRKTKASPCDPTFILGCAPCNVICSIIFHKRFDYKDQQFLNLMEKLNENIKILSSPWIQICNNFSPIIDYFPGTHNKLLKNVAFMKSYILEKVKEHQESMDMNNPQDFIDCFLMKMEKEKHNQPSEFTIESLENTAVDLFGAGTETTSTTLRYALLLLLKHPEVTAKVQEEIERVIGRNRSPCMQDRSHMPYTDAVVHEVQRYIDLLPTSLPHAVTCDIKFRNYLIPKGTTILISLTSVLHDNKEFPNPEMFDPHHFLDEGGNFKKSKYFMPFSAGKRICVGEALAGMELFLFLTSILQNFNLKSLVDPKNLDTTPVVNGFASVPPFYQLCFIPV
Experimental: Cytochrome P450 (CYP) isoforms CYP1A2, CYP2C9, CYP2C19, CYP2D6, and CYP3A4, heterologously expressed in E. coli, were obtained from Cypex and mixed to produce a 5-CYP mix. A selective and FDA accepted substrate for each isoform was present in the reaction at a concentration around its Km.
The 5-CYP mix and a CYP substrate cocktail were added and the tubes warmed for 3 minutes whilst mixing on a BioShake IQ (37° C., 1500 rpm). NADPH (final concentration 1 mM) was added and the mixture was incubated for 10 minutes. Methanol containing an internal standard (1 μM tolbutamide) was then added to all samples, and these were mixed and placed at −20° C. for ≥1 hour to quench the reaction and allow protein to precipitate.
All samples were centrifuged (2500×g, 20 minutes, 4° C.). The supernatants were transferred to a fresh 96 well plate, compatible with an autosampler. The plate was sealed with a pre-slit silicone mat and the metabolites were analyzed by LC-MS/MS. […]
The final concentration in the assay of the 5-CYP mix was 32.5 pmol/ml for each of the enzymes evaluated (i.e., CYP1A2, CYP2C9, CYP2C19, CYP2D6, and CYP3A4). […]
The metabolites measured were: CYP1A2, 1-hydroxytacrine; CYP2C9, 4′-hydroxy diclofenac; CYP2C19, 4′-hydroxymephenytoin; CYP2D6, hydroxybufuralol; CYP3A4, 1′hydroxymidazolam. […]

[2] = co-administered with CYP2C9 inhibitor sulfaphenazole, human subjects; Perkins et al. 2018; cited from earlier work
[3] = plasma, single oral 500 mg tolbutamide alone, healthy subjects
[4] = plasma, single oral 500 mg tolbutamide with 350 mg relacorilant after once-daily relacorilant, healthy subjects

CCCCNC(=O)NS(=O)(=O)c1ccc(CO)cc1 [4-OH Tolbutamide, 4-hydroxy tolbutamide]
effect of relacorilant co-administration on AUC0-tz and AUCinf [1]: no effect
reduction of Cmax on co-administration of relacorilant [1]: approximately 37%
AUC0-tz, Ratio of Geometric LSMs (%) [1]: 88.80%
AUCinf, Ratio of Geometric LSMs (%) [1]: 89.91%
Cmax, Ratio of Geometric LSMs (%) [1]: 63.49%
AUC0-tz, Geometric LSM, Reference (Day 2) Treatment B [1, 3]: 8.619 µg·h/mL
AUCinf, Geometric LSM, Reference (Day 2) Treatment B [1, 3]: 8.954 µg·h/mL
Cmax, Geometric LSM, Reference (Day 2) Treatment B [1, 3]: 604.3 ng/mL
AUC0-tz, Geometric LSM, Test (Day 15) Treatment E [1, 4]: 7.653 µg·h/mL
AUCinf, Geometric LSM, Test (Day 15) Treatment E [1, 4]: 8.051 µg·h/mL
Cmax, Geometric LSM, Test (Day 15) Treatment E [1, 4]: 383.6 ng/mL

Cn1cc(S(=O)(=O)N2CCC3=Cc4c(cnn4-c4ccc(F)cc4)C[C@]3(C(=O)c3cc(C(F)(F)F)ccn3)C2)cn1 [Relacorilant, (R)-(1-(4-fluorophenyl)-6-((1-methyl-1H-pyrazol-4-yl)sulfonyl)-4,4a,5,6,7,8-hexahydro-1H-pyrazolo[3,4-g]isoquinolin-4a-yl)(4-(trifluoromethyl)pyridine-2-yl)methanone]
IC50 (CYP2C9): 2100 nM

CCCCNC(=O)NS(=O)(=O)c1ccc(C)cc1 [Tolbutamide, tolbutamide, reference compound]
fold increase in plasma level of tolbutamide (AUC) with sulfaphenazole [2]: more than 5 fold
effect of relacorilant co-administration on AUC0-tz and AUCinf [1]: no effect
reduction of Cmax on co-administration of relacorilant [1]: approximately 31%
AUC0-tz, Ratio of Geometric LSMs (%) [1]: 89.11%
AUCinf, Ratio of Geometric LSMs (%) [1]: 89.54%
Cmax, Ratio of Geometric LSMs (%) [1]: 69.22%
AUC(0-inf) ([1]; human, plasma, po, 500 mg): 602 µg·h/mL
AUC(0-t) ([1]; human, plasma, po, 500 mg): 579 µg·h/mL
Cmax ([1]; human, plasma, po, 500 mg): 42400 ng/mL
